Target: T1, human ferroportin (Homo sapiens, UniProt Q9NP59)
T1 construct: luciferase reporter (read with the Nano-Glo Luciferase Assay System); expressed in transfected cells; host or cells: CHO cells, stably transfected, expression induced with doxycycline
T1 sequence (Q9NP59 1-571): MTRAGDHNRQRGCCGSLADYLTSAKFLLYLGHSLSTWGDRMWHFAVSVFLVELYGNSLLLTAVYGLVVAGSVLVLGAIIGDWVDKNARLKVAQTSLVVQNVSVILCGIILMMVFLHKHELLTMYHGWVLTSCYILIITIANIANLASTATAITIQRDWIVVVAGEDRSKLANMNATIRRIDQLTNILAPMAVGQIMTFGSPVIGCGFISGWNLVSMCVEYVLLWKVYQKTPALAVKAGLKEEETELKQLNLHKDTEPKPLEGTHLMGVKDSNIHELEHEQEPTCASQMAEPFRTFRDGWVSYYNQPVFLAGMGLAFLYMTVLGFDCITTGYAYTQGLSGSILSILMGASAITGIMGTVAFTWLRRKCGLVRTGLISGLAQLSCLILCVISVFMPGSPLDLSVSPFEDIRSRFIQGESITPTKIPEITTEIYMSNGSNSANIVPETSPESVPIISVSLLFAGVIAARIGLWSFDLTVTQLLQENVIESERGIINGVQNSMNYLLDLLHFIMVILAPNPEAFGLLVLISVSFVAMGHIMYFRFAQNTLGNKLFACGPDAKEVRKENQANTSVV
Experiment: Biological in-vitro ferroportin internalization assay (luciferase reporter)
Assay type: cell-based
Settings: average pEC50; stably-transfected CHO cell line expressing human ferroportin tagged to a luciferase reporter; 6 h incubation with test compound
Summary of the method: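 Stably transfected CHO cells expressing luciferase-tagged human ferroportin, plated 24 h with ferric ammonium citrate and induced with doxycycline for 24 h. Compounds incubated 6 h, then luciferase activity measured by Nano-Glo; average pEC50 reported.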

Compound	pEC50
CN(CC(=O)NC(C)(C)C)c1nc(-c2cc(OCCN3CC[C@@H](F)C3)ccn2)nc2c1CCC2 [Compound 473, N-tert-butyl-2-{[2-(4-{2-[(3R)-3-fluoropyrrolidin-1-yl]ethoxy}pyridin-2-yl)-5H,6H,7H-cyclopenta[d]pyrimidin-4-yl](methyl)amino}acetamide]	8.3
CN(CC(=O)NC(C)(C)CO)c1nc(-c2cc(OCCO)ccn2)nc2c1CCC2 [Compound 148, N-(1-hydroxy-2-methylpropan-2-yl)-2-({2-[4-(2-hydroxyethoxy)pyridin-2-yl]-5H,6H,7H-cyclopenta[d]pyrimidin-4-yl}(methyl)amino)acetamide]	7.6
COC[C@@H](O)COc1ccnc(-c2nc3c(c(N(C)CC(=O)NC(C)C)n2)CCC3)c1 [Compound 448, 2-[(2-{4-[(2R)-2-hydroxy-3-methoxypropoxy]pyridin-2-yl}-5H,6H,7H-cyclopenta[d]pyrimidin-4-yl)(methyl)amino]-N-(propan-2-yl)acetamide]	7.4
CN(CC(=O)NCC(F)(F)F)c1nc(-c2cc(OCC(C)(C)O)ccn2)nc2c1CCC2 [Compound 479, 2-({2-[4-(2-hydroxy-2-methylpropoxy)pyridin-2-yl]-5H,6H,7H-cyclopenta[d]pyrimidin-4-yl}(methyl)amino)-N-(2,2,2-trifluoroethyl)acetamide]	7.9
COc1ccc(NC(=O)CN(C)c2nc(-c3cc4ncccc4cn3)nc3c2CCC3)cn1 [Compound 257, N-(6-methoxypyridin-3-yl)-2-{methyl[2-(1,6-naphthyridin-7-yl)-5H,6H,7H-cyclopenta[d]pyrimidin-4-yl]amino}acetamide]	7
CN(CC(=O)Nc1nnc(N2CCCCCC2)s1)c1nc(-c2ccccn2)nc2c1CCC2 [Compound 70, N-[5-(azepan-1-yl)-1,3,4-thiadiazol-2-yl]-2-{methyl[2-(pyridin-2-yl)-5H,6H,7H-cyclopenta[d]pyrimidin-4-yl]amino}acetamide]	7.4
CN(CC(=O)NC(C)(C)C)c1nc(-c2cc(C3CC3)ccn2)nc2c1CCC2 [Compound 57, N-tert-butyl-2-{[2-(4-cyclopropylpyridin-2-yl)-5H,6H,7H-cyclopenta[d]pyrimidin-4-yl](methyl)amino}acetamide]	7.5
CN(C)CCOc1ccnc(-c2cc(N(C)CC(=O)NC(C)(C)C)c3c(n2)CCC3)c1 [Compound 495, N-tert-butyl-2-[(2-{4-[2-(dimethylamino)ethoxy]pyridin-2-yl}-5H,6H,7H-cyclopenta[b]pyridin-4-yl)(methyl)amino]acetamide]	7.4
CN(CC(=O)NC(C)(C)C)c1nc(-c2ccc(CCO)cn2)nc2c1CCC2 [Compound 43, N-tert-butyl-2-({2-[5-(2-hydroxyethyl)pyridin-2-yl]-5H,6H,7H-cyclopenta[d]pyrimidin-4-yl}(methyl)amino)acetamide]	7
CN(CC(=O)NC(C)(C)C)c1nc(-c2cc3c(cn2)OCO3)nc2c1CCC2 [Compound 226, N-tert-butyl-2-[(2-{2H-[1,3]dioxolo[4,5-c]pyridin-6-yl}-5H,6H,7H-cyclopenta[d]pyrimidin-4-yl)(methyl)amino]acetamide]	7.1
CN(CC(=O)Nc1ccc(F)nc1)c1nc(-c2cn(C)cn2)nc2c1CCC2 [Compound 129, N-(6-fluoropyridin-3-yl)-2-{methyl[2-(1-methyl-1H-imidazol-4-yl)-5H,6H,7H-cyclopenta[d]pyrimidin-4-yl]amino}acetamide]	7.2
CN(CC(=O)N1CCCCC1)c1nc(-c2ccccn2)nc2c1CCC2 [Compound 88, 2-{methyl[2-(pyridin-2-yl)-5H,6H,7H-cyclopenta[d]pyrimidin-4-yl]amino}-1-(piperidin-1-yl)ethan-1-one]	7.1
CN(CC(=O)NC(C)(C)C)c1nc(-c2cc(OCCn3cnnn3)ccn2)nc2c1CCC2 [Compound 466, N-tert-butyl-2-[methyl(2-{4-[2-(1H-1,2,3,4-tetrazol-1-yl)ethoxy]pyridin-2-yl}-5H,6H,7H-cyclopenta[d]pyrimidin-4-yl)amino]acetamide]	7.9
CN(C)CCOc1ccnc(-c2nc3c(c(N(C)CC(=O)NCC(F)(F)F)n2)CCC3)c1 [Compound 478, 2-[(2-{4-[2-(dimethylamino)ethoxy]pyridin-2-yl}-5H,6H,7H-cyclopenta[d]pyrimidin-4-yl)(methyl)amino]-N-(2,2,2-trifluoroethyl)acetamide]	7.6
CN(CC(=O)NC(C)(C)C)c1nc(-c2cc(OCC3(O)CCCC3)ccn2)nc2c1CCC2 [Compound 381, N-tert-butyl-2-[(2-{4-[(1-hydroxycyclopentyl)methoxy]pyridin-2-yl}-5H,6H,7H-cyclopenta[d]pyrimidin-4-yl)(methyl)amino]acetamide]	8.3
CN(CC(=O)Nc1ccc(OC(F)(F)F)nc1)c1nc(-c2cc3ccccc3cn2)nc2c1CCC2 [Compound 234, 2-{[2-(isoquinolin-3-yl)-5H,6H,7H-cyclopenta[d]pyrimidin-4-yl](methyl)amino}-N-[6-(trifluoromethoxy)pyridin-3-yl]acetamide]	6.4
CN(CC(=O)Nc1cccc(F)c1)c1nc(-c2cc(OCCN)ccn2)nc2c1CCC2 [Compound 293, 2-({2-[4-(2-aminoethoxy)pyridin-2-yl]-5H,6H,7H-cyclopenta[d]pyrimidin-4-yl}(methyl)amino)-N-(3-fluoropehnyl)acetamide]	7.9
COc1ccc2cc(-c3nc4c(c(N(C)CC(=O)NC(C)(C)C)n3)CCC4)ncc2c1 [Compound 262, N-tert-butyl-2-{[2-(7-methoxyisoquinolin-3-yl)-5H,6H,7H-cyclopenta[d]pyrimidin-4-yl](methyl)amino}acetamide]	7.1
CN1CCC(NC(=O)CN(C)c2nc(-c3ccccn3)nc3c2CCC3)C1=O (centres unmarked) [Compound 31, N-(1-methyl-2-oxopyrrolidin-3-yl)-2-{methyl[2-(pyridin-2-yl)-5H,6H,7H-cyclopenta[d]pyrimidin-4-yl]amino}acetamide]	6.2
CN(CC(=O)NC12CC(C1)C2)c1nc(-c2cc(OCCO)ccn2)nc2c1CCC2 [Compound 349, N-{bicyclo[1.1.1]pentan-1-yl}-2-({2-[4-(2-hydroxyethoxy)pyridin-2-yl]-5H,6H,7H-cyclopenta[d]pyrimidin-4-yl}(methyl)amino)acetamide]	7.8
CN(CC(=O)Nc1cccc(F)c1)c1nc(-c2cc(O[C@H]3C[C@@H](O)C3)ccn2)nc2c1CCC2 [Compound 345, N-(3-fluorophenyl)-2-[methyl(2-{4-[(1s,3s)-3-hydroxycyclobutoxy]pyridin-2-yl}-5H,6H,7H-cyclopenta[d]pyrimidin-4-yl)amino]acetamide]	6.7
CN1CC[C@@H](Oc2ccnc(-c3nc4c(c(N(C)CC(=O)NC(C)(C)C)n3)CCC4)c2)C1 [Compound 437, N-tert-butyl-2-{methyl[2-(4-{[(3R)-1-methylpyrrolidin-3-yl]oxy}pyridin-2-yl)-5H,6H,7H-cyclopenta[d]pyrimidin-4-yl]amino}acetamide]	8.0
C[C@H](C(=O)NC(C)(C)C)N(C)c1nc(-c2ccccn2)nc2c1CCC2 [Compound 51, (2R)—N-tert-butyl-2-{methyl[2-(pyridin-2-yl)-5H,6H,7H-cyclopenta[d]pyrimidin-4-yl]amino}propanamide]	7.5
CN(C)C(=O)COc1ccnc(-c2nc3c(c(N(C)CC(=O)NC(C)(C)C)n2)CCC3)c1 [Compound 403, 2-{[2-(4-{[(tert-butylcarbamoyl)methyl](methyl)amino}-5H,6H,7H-cyclopenta[d]pyrimidin-2-yl)pyridin-4-yl]oxy}-N,N-dimethylacetamide]	7.6
COc1ccnc(-c2nc3c(c(N(C)CC(=O)NC4COC4)n2)CCC3)c1 [Compound 373, 2-{[2-(4-methoxypyridin-2-yl)-5H,6H,7H-cyclopenta[d]pyrimidin-4-yl](methyl)amino}-N-(oxetan-3-yl)acetamide]	7.3
COc1ccnc(-c2nc3c(c(N(C)[C@@H]4CCN(c5ccccc5)C4=O)n2)CCC3)c1 [Compound 132, (3R)-3-{[2-(4-methoxypyridin-2-yl)-5H,6H,7H-cyclopenta[d]pyrimidin-4-yl](methyl)amino}-1-phenylpyrrolidin-2-one]	7.3
CN(CC(=O)Nc1cnn(C)c1)c1nc(-c2cc(OC(F)(F)F)ccn2)nc2c1CCC2 [Compound 231, 2-[methyl({2-[4-(trifluoromethoxy)pyridin-2-yl]-5H,6H,7H-cyclopenta[d]pyrimidin-4-yl})amino]-N-(1-methyl-1H-pyrazol-4-yl)acetamide]	6.2
CN(CC(=O)NCc1ccccc1)c1nc(-c2ccccn2)nc2c1CCC2 [Compound 27, N-benzyl-2-{methyl[2-(pyridin-2-yl)-5H,6H,7H-cyclopenta[d]pyrimidin-4-yl]amino}acetamide]	6.8
Cc1cc(OCCO)cc(-c2nc3c(c(N(C)CC(=O)NC(C)(C)C)n2)CCC3)n1 [Compound 427, N-tert-butyl-2-({2-[4-(2-hydroxyethoxy)-6-methylpyridin-2-yl]-5H,6H,7H-cyclopenta[d]pyrimidin-4-yl}(methyl)amino)acetamide]	7.6

Reference: patent publication US11746100B2 (GLOBAL BLOOD THERAPEUTICS, INC., priority 2020, dated 2023)
